From PMC5410339, “dUTPase inhibition augments replication defects of 5-Fluorouracil” (Oncotarget, 2017)

Columns and labels:
dUTPase [1] = target: T1, dUTPase (Homo sapiens, UniProt P33316); experiment: malachite green activity assay with dUTP as substrate, purified recombinant enzyme; assay type: biochemical
T1 construct: gene DUT; human recombinant dUTPase
T1 sequence (P33316 70-252): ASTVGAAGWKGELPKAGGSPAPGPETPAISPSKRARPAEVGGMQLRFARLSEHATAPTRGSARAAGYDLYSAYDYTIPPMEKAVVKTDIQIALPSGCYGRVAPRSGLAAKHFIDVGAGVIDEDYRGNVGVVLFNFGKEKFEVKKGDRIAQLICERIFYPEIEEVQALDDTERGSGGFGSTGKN

dUTPase [2] = target: T1, dUTPase; experiment: malachite green assay of substrate hydrolysis by purified enzyme; assay type: biochemical

CC(NS(=O)(=O)CCCOCn1ccc(=O)[nH]c1=O)c1cccc(OC2CCCC2)c1 (stereo not shown) [compound 2]
IC50 (dUTPase [1]): 25 nM

O=c1ccn([C@H]2C[C@H](O)[C@@H](COP(=O)(O)OP(=O)(O)OP(=O)(O)O)O2)c(=O)[nH]1 [dUTP]
malachite green assay of substrate hydrolysis by purified enzyme (dUTPase [2]): 6.6 μM formed PPi per second per μM enzyme

O=c1[nH]c(=O)n([C@H]2C[C@H](O)[C@@H](COP(=O)(O)OP(=O)(O)OP(=O)(O)O)O2)cc1F [5-FdUTP]
malachite green assay of substrate hydrolysis by purified enzyme (dUTPase [2]): 5.5 μM formed PPi per second per μM enzyme

O=C(CCCn1ccc(=O)[nH]c1=O)N1CCC[C@H]1C(c1ccccc1)c1ccccc1 [compound 1]
IC50 (dUTPase [1]): 740 nM
